Assay results reported in patent publication US20180371550A1, “LOSS OF TRANSCRIPTIONAL FIDELITY LEADS TO IMMUNOTHERAPY RESISTANCE IN CANCERS” (Children's Hospital Medical Center, priority 2015, published 2018).

How the values were obtained:
[1] = tested on: Cal51 and T47D cells; assay: Immunoblot of RNAP II and histone marks in cells treated with flavopiridol; format: cell-based; settings: increasing sublethal doses of flavopiridol for 48 hours, FIG. 15G
Description: (§1) Total proteins were extracted with RIPA buffer (Santa Cruz Biotechnology, sc-24948), and 15 μg protein from each sample was run in a 4-18% SDS polyacrylamide gel (Bio-Rad), and transferred onto polyvinylidene difluoride membranes. The membranes were blocked in 5% dry milk in tris-buffered saline—Tween 20 for 1 hour. Blocked membranes were incubated overnight with primary antibodies against pSer5-RNA polymerase II (1:1000, Active motif), pSer2-RNA polymerase II (1:1000, Active motif), RNA polymerase II (1:1000, Active motif), SETD2 (1:1000, abcam), CyclinT1 (1:1000, Santa Cruz), H3K36me3 (1:5000, abcam), H3K27me3 (1:5000, Active motif), Pan-acetyl-H3 (1:5000, Cell Signaling), Histone H3 (1:5000, Cell Signaling), pMAPK (1;1000, Cell Signaling), MAPK (1;1000, Cell Signaling), pAKT (1:1000, Cell Signaling), STAT1 (1:1000, Cell Signaling), pSTAT1 (1:1000, Cell Signaling), NF-κB (1:1000, Cell Signaling), pNF-κB (1:1000), Cleaved-PARP(1:1000, Cell Signaling), Caspase-3 (1;1000, Cell Signaling), β-Actin (1;1000, Cell Signaling), GAPDH (1:1000, Cell Signaling) in 5% bovine serum albumin. After washing and incubating with the appropriate secondary antibody (anti-rabbit IgG or anti-Rat IgG (1:5000, Cell signaling)), protein signals were detected with enhanced chemiluminescence (Millipore).

[2] = tested on: Cal51 cells; assay: STAT1 activation after IFN-α stimulation in flavopiridol-treated cells; format: cell-based; settings: flavopiridol for 48 hours, then IFN-α for 30 minutes, FIG. 15H
Description: as §1, with “(Millipore). […]” for “(Millipore).”

[3] = tested on: Cal51 cells; assay: Cytotoxicity assay: relative viability after FasL stimulation with flavopiridol pre-treatment; format: cell-based; settings: 24 hours FasL, 48 hour pre-treatment with 100 μM flavopiridol, FIG. 15I
Description: Equal number of cells was seeded into the wells of 96-well culture plates in their corresponding medium and incubated overnight in a 5% CO2 humidified incubator. Cells were then treated with different concentrations of hhis6FasL (0.1 ng/ml-1000 ng/ml) in the presence of 10 μg/ml anti-His antibody (Cell Signaling) for 24 hours. Dead cells were removed by washing with PBS buffer and the attached cells were fixed and stained with crystal violet solution [20% methanol, 0.5% crystal violet (Sigma) in 1× phosphate-buffered saline (PBS)] for 30 min. Excess stain was removed by gently rinsing the plates in tap water, and the plates were dried at room temperature. Crystal violet crystals were redissolved in Triton (Amresco), and cell density was determined by measuring the absorbance at 570 nm in a microplate reader (Bio-Tek Instruments).

[4] = tested on: B16/F10 mouse melanoma cells; assay: Testing NK-mediated tumor cell killing in vivo (lung seeding of B16-OVA cells); parameters: species or system C57BL6 mice; settings: FIG. 15J
Description: C57Bl/6 mice were injected with control or flavopiridol (100 μM) treated 2×10^5 B16-OVA cells into tail veins. One hour later, the lungs were harvested, digested in liberase and the frequency of tumor cells was assessed using quantitative PCR (Shehata et al., 2015). mRNA levels for OVA (B16-OVA) were assessed and normalized to GAPDH. […] Six mice for each group were used. The protocol and use of mice were performed with the approval of the Cincinnati Children's Institutional Animal Care and Use Committee.

Compound: CN1CC[C@H](c2c(O)cc(O)c3c(=O)cc(-c4ccccc4Cl)oc23)[C@H](O)C1 [flavopiridol]
- RNAP II and histone marks (epigenetic and transcriptional defects) [1]: widespread epigenetic and transcriptional defects
- response to pro-inflammatory stimuli (STAT1 activation) [2]: resistance to pro-inflammatory stimuli
- relative viability after FasL challenge [3]: resistance to pro-inflammatory stimuli and FasL challenge
- lung seeding of B16 cells (OVA mRNA normalized to GAPDH, qPCR) ([4]; B16-OVA cells treated with flavopiridol (100 μM), tail vein injection into C57Bl/6 mice, lungs after 1 hour, vs control cells): significantly increased the ability of B16 cells for lung seeding
- lung seeding of B16 cells in NK-depleted mice ([4]; as E4, mice pre-injected with anti-asialo GM1 (NK depletion)): the effect was diminished
